What is called inhibition is how much of the control response was suppressed. Usually Papp stands for the rate of passage across a membrane or cell layer, normalised by area and donor concentration.

Drawing on ChEMBL document CHEMBL4184259, “Design, synthesis and evaluation of 4'-OH-flurbiprofen-chalcone hybrids as potential multifunctional agents for Alzheimer's disease treatment” (Bioorg Med Chem, 2018), this text covers inhibition, Activity and Papp for 21 molecules.

Data set [1] has as its system BV-2. In words: Antiinflammatory activity in mouse BV2 cells assessed as inhibition of LPS-induced TNFalpha production at 2.5 uM pretreated for 30 mins followed by LPS-stimulation measured after 24 hrs by ELISA relative to control. In kind it is functional.
In data set [2] the test system is BV-2. In words: Cytotoxicity against mouse BV2 cells assessed as effect on cell viability up to 10 uM after 30 mins by MTT assay. In kind it is cell-based. As to conditions: bv-2, 0.5 h. In general terms: Formazan colour is commonly taken as a measure of viable cells.
A short description of data set [3]: Metal chelating activity assessed as Cu2+-compound complex formation by measuring shift in maximum absorption wavelength at 37.5 uM after 30 mins by UV-Vis spectral analysis.
Data set [4] has as its system BV-2. The data set is described as follows: Antiinflammatory activity in mouse BV2 cells assessed as inhibition of LPS-induced TNFalpha production at 0.5 uM pretreated for 30 mins followed by LPS-stimulation measured after 24 hrs by ELISA relative to control. It counts as functional. (An ELISA detects its analyte on a solid surface through an enzyme-linked reagent.)

The test system of data set [5] is BV-2. In words: Cytotoxicity against mouse BV2 cells assessed as reduction in cell viability at 40 uM after 30 mins by MTT assay relative to control. In kind it is cell-based. The note with it: bv-2, 0.5 h.
Data set [6] can be described thus: Metal chelating activity assessed as Fe2+-compound complex formation by measuring shift in maximum absorption wavelength at 37.5 uM after 30 mins by UV-Vis spectral analysis.
Data set [7] relates to BV-2. In words: Antiinflammatory activity in mouse BV2 cells assessed as inhibition of LPS-induced TNFalpha production at 10 uM pretreated for 30 mins followed by LPS-stimulation measured after 24 hrs by ELISA relative to control. It counts as functional.
A short description of data set [8]: Metal chelating activity assessed as mole fraction of compound required to show 1:1 stoichiometry for Cu2+-compound complex by UV-vis spectral analysis.
A short description of data set [9]: Antioxidant activity assessed as trolox equivalent of […]-induced radical scavenging activity at 1 to 10 uM pretreated for 15 mins followed by […] addition measured at 1 min interval for 90 mins by ORAC-FL assay. In kind it is functional.
Data set [10] has as its system BV-2. In words: Cytotoxicity against LPS-induced mouse BV2 cells assessed as effect on cell viability at 0.5 to 10 uM pretreated for 30 mins followed by LPS-stimulation after 24 hrs by MTT assay. In kind it is cell-based. The note with it: bv-2, 24 h.
Data set [11] can be described thus: Effective permeability of the compound in PBS/EtOH at 100 ug/ml after 18 hrs by PAMPA-BBB assay. In general terms: The PAMPA barrier holds no transporters, so it reflects passive diffusion.
Data set [12] in a line: Metal chelating activity assessed as Al3+-compound complex formation by measuring shift in maximum absorption wavelength at 37.5 uM after 30 mins by UV-Vis spectral analysis.
Data set [13] is described as follows: Inhibition of cupric ion-mediated amyloid beta (1 to 42) aggregation at 25 uM after 24 hrs by thioflavin T fluorescence assay relative to control.
Data set [14] relates to BV-2. In words: Antiinflammatory activity in mouse BV2 cells assessed as inhibition of LPS-induced nitric oxide production at 2.5 uM pretreated for 30 mins followed by LPS-stimulation measured after 24 hrs by Griess assay relative to control. In kind it is functional.
The target of data set [15] is Amyloid-beta precursor protein (Homo sapiens) (UniProt P05067). In words: Inhibition of self-induced aggregation of amyloid beta (1 to 42) (unknown origin) at 25 uM after 24 hrs by thioflavin T fluorescence method relative to control.
Amyloid-beta precursor protein (Homo sapiens), sequence (P05067 whole entry): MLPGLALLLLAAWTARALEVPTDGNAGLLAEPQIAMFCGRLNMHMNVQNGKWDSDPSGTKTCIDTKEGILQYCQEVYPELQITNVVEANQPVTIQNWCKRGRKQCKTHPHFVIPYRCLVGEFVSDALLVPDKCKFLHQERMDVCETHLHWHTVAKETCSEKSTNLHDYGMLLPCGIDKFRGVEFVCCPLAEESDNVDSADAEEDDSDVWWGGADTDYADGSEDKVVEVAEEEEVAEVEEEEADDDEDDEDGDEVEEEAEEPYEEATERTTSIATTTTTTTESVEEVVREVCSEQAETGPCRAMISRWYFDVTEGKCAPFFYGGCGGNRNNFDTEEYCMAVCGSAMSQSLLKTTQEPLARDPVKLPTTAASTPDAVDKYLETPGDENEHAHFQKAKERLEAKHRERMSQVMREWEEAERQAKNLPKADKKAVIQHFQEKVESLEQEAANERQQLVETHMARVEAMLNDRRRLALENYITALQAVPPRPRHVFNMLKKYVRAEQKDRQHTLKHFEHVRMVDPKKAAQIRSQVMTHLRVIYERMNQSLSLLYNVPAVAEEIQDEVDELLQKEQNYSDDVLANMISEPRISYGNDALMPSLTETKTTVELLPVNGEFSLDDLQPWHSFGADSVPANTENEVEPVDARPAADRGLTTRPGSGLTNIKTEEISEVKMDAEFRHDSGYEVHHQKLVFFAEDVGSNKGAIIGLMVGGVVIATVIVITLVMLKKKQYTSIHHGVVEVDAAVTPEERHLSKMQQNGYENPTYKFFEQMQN
Data set [16] concerns BV-2. The data set is described as follows: Antiinflammatory activity in mouse BV2 cells assessed as inhibition of LPS-induced nitric oxide production at 0.5 uM pretreated for 30 mins followed by LPS-stimulation measured after 24 hrs by Griess assay relative to control. In kind it is functional.
Data set [17] has as its system BV-2. The data set is described as follows: Antiinflammatory activity in mouse BV2 cells assessed as inhibition of LPS-induced nitric oxide production at 10 uM pretreated for 30 mins followed by LPS-stimulation measured after 24 hrs by Griess assay relative to control. In kind it is functional.
The nature of data set [18]: Metal chelating activity assessed as Zn2+-compound complex formation by measuring shift in maximum absorption wavelength at 37.5 uM after 30 mins by UV-Vis spectral analysis.
Data set [19] deals with BV-2. The data set is described as follows: Cytotoxicity against LPS-induced mouse BV2 cells assessed as effect on cell viability at 2.5 to 10 uM pretreated for 30 mins followed by LPS-stimulation after 24 hrs by MTT assay. It counts as cell-based. As to conditions: bv-2, 24 h.

Active and inactive are the calls of the source. The rule behind the calls is not given here.

For `CC(C(=O)O)c1ccc(-c2ccc(O)c(C(=O)/C=C/c3ccc(N(C)C)cc3)c2)c(F)c1` (centres undefined), the inhibition at 2.5 µM worked out at 39.6% in the data set on BV-2 [1] and 36% with BV-2 [14]. Besides, the Activity result was “Non-Toxic” in the data set with BV-2 [2]; 492 nm in [3]; 69.1% in the data set on BV-2 [5]; 0.99 molar ratio in data set [8]; 3.1 equiv in data set [9]; “Non-Toxic” in the data set with BV-2 [10]. Moreover, the Activity in data set [12] worked out at 500 nm. Further, the inhibition at 0.5 µM came to 12.1% in the data set with BV-2 [4] and 25.7% in the data set on BV-2 [16]. The result in data set [6] and in data set [18] was inactive. Besides, the figures for the inhibition at 10 µM in the data set with BV-2 [7] and in the data set on BV-2 [17] were 61.5% and 64.7%, respectively. In addition, the Papp at 18 h, 100 ug/ml in data set [11] is 2.25 ×10⁻⁶ cm/s. Also, the inhibition in data set [13] was 52.4%; in data set [15] it was 60%.

Regarding `CC(C(=O)O)c1ccc(-c2ccc(O)c(C(=O)/C=C/c3cccs3)c2)c(F)c1` (centres undefined), the Activity in data set [9] came to 1.2 equiv. The inhibition in data set [13] was found to be 12.1%; in data set [15], 16.6%.

For `COc1cc(/C=C/C(=O)CC(=O)/C=C/c2ccc(O)c(OC)c2)ccc1O`, in [13], the inhibition came out at 69.5%.

Regarding `CC(C(=O)O)c1ccc(-c2ccc(O)c(C(=O)/C=C/c3ccc(N4CCOCC4)cc3)c2)c(F)c1` (centres undefined), the Activity in [9] stood at 2.23 equiv. Besides, the results for the inhibition in data set [13] and in [15] were 47.2% and 51.3%, respectively.

Turning to `CCN(CC)c1ccc(/C=C/C(=O)c2cc(-c3ccc(C(C)C(=O)O)cc3F)ccc2O)cc1` (centres undefined), the inhibition at 2.5 µM was 46.2% with BV-2 [1] and 46.3% in the data set with BV-2 [14]. Besides, the Activity entry is “Non-Toxic” in the data set with BV-2 [2]; 500 nm in data set [3]; 64.9% in the data set on BV-2 [5]; 1.04 molar ratio in [8]; 3.3 equiv in [9]; “Non-Toxic” with BV-2 [10]. The Activity in [12] was 516 nm. In addition, the figures for the inhibition at 0.5 µM in the data set on BV-2 [4] and in the data set on BV-2 [16] were 14.3% and 30.1%, respectively. The inhibition at 10 µM came out at 65.4% in the data set on BV-2 [7] and 68.4% in the data set with BV-2 [17]. This molecule yielded a Papp at 18 h, 100 ug/ml in [11] of 6.66 ×10⁻⁶ cm/s. Also, the values for the inhibition in data set [13] and in data set [15] were 95% and 78.2%, respectively.

As for `CC(C(=O)O)c1ccc(-c2ccccc2)c(F)c1` (centres undefined) [FLURBIPROFEN], the inhibition at 2.5 µM was 9.6% with BV-2 [1] and 11.8% in the data set on BV-2 [14]. Moreover, the Activity entry was “Non-Toxic” in the data set with BV-2 [2], “Non-Toxic” in the data set on BV-2 [5], 0.14 equiv in data set [9] and “Non-Toxic” with BV-2 [19]. The inhibition at 10 µM in the data set with BV-2 [7] turned out to be 30.3%; with BV-2 [17] it was 23%. The figures for the inhibition in [13] and in [15] were 6.2% and 12.3%, respectively.

Take `CC(C(=O)O)c1ccc(-c2ccc(O)c(C(=O)/C=C/c3ccc(O)cc3)c2)c(F)c1` (centres undefined): in [9], the Activity stood at 3.5 equiv. In addition, the inhibition in data set [13] is 26.1%; in [15], 18.7%.

As to `CC(C(=O)O)c1ccc(-c2ccc(O)c(C(=O)/C=C/c3ccccc3O)c2)c(F)c1` (centres undefined), the Activity in [9] worked out at 3.4 equiv. Further, the values for the inhibition in data set [13] and in data set [15] were 16.3% and 23.1%, respectively.

In the case of `COc1ccccc1/C=C/C(=O)c1cc(-c2ccc(C(C)C(=O)O)cc2F)ccc1O` (centres undefined), in data set [9], the Activity is 1.06 equiv. The results for the inhibition in data set [13] and in [15] were 18.9% and 25.1%, respectively.

`COc1ccc(O)c(/C=C/C(=O)c2cc(-c3ccc(C(C)C(=O)O)cc3F)ccc2O)c1` (centres undefined): in [9], the Activity stood at 2.5 equiv. The inhibition in data set [13] was 22.2%; in data set [15], 38.1%.

Consider `CC(C(=O)O)c1ccc(-c2ccc(O)c(C(=O)/C=C/c3ccncc3)c2)c(F)c1` (centres undefined), for which, in data set [9], the Activity amounted to 0.9 equiv. The figures for the inhibition in [13] and in [15] were 52.8% and 18.2%, respectively.

For `COc1ccc(/C=C/C(=O)c2cc(-c3ccc(C(C)C(=O)O)cc3F)ccc2O)c(OC)c1` (centres undefined), in [9], the Activity came to 1.05 equiv. The inhibition came out at 45.3% in [13] and 18.8% in [15].

In data set [13], `COc1cc2c(cc1OC)C(=O)C(CC1CCN(Cc3ccccc3)CC1)C2` (centres undefined) had an inhibition of under 5%.

As to `COc1cccc(/C=C/C(=O)c2cc(-c3ccc(C(C)C(=O)O)cc3F)ccc2O)c1O` (centres undefined), the Activity in [9] turned out to be 1.6 equiv. Besides, the inhibition in data set [13] turned out to be 13.4%; in [15], 29%.

`CC(C(=O)O)c1ccc(-c2ccc(O)c(C(=O)/C=C/c3cccnc3)c2)c(F)c1` (centres undefined): the Activity in data set [9] was determined as 1.1 equiv. Also, the inhibition was found to be 47% in data set [13] and 8.3% in data set [15].

`COc1ccc(/C=C/C(=O)c2cc(-c3ccc(C(C)C(=O)O)cc3F)ccc2O)cc1OC` (centres undefined): the Activity in data set [9] was 1.56 equiv. The inhibition in data set [13] was 24.5%; in data set [15], 14.2%.

On to `CC(C(=O)O)c1ccc(-c2ccc(O)c(C(=O)/C=C/c3ccccc3N(C)C)c2)c(F)c1` (centres undefined), for which the Activity in data set [9] amounted to 0.77 equiv. Further, the values for the inhibition in [13] and in data set [15] were 20.1% and 36.8%, respectively.

As for `COc1ccc(/C=C/C(=O)c2cc(-c3ccc(C(C)C(=O)O)cc3F)ccc2O)cc1` (centres undefined), the Activity in data set [9] was 0.61 equiv. For the same molecule, the values for the inhibition in data set [13] and in data set [15] were 29.1% and 32.9%, respectively.

For the molecule `COc1ccc(/C=C/C(=O)c2cc(-c3ccc(C(C)C(=O)O)cc3F)ccc2O)cc1O` (centres undefined), the Activity in [9] was determined as 2 equiv. For the same molecule, the inhibition in data set [13] is 14.6%; in data set [15] it was 31%.

For the molecule `CC(C(=O)O)c1ccc(-c2ccc(O)c(C(=O)/C=C/c3ccc(N4CCCCC4)cc3)c2)c(F)c1` (centres undefined), the Activity in data set [9] came to 1.1 equiv. Also, the inhibition in data set [13] was found to be 53.8%; in data set [15], 31.5%.

As for `Cc1ccc(/C=C/C(=O)c2cc(-c3ccc(C(C)C(=O)O)cc3F)ccc2O)cc1` (centres undefined), the Activity in data set [9] is 0.42 equiv. Moreover, the inhibition in [13] was determined as 18.7%; in data set [15] it was 23.6%.
